Earlier results on three compounds are cited in PMC4101043 (Antiviral research, 2014).

Where two headings read alike, the source gives them in different places.

One data set deals with Wild-Type HIV-1 NL4-3. The following applies: MT-4 cells.
A further data set deals with UGTs. The following applies: stated as known, no reference given.
For data set [1] the following is noted: dosage and study duration differ.
Where [2] appears, read: CPE inhibition, ref Okello et al., 2013a.

Regarding `Cc1nnc(C(=O)NC(C)(C)c2nc(C(=O)NCc3ccc(F)cc3)c(O)c(=O)n2C)o1` [raltegravir], in the data set on Wild-Type HIV-1 NL4-3 (setting [2]), the EC50 was 6.54 nM. Moreover, the t1/2 (rats, po doses of 40–120 mg/kg, ref Merck, 2007) is at most 1.6 h. In addition, the Cl rate (rats, ref Laufer et al., 2009) is 38.3 mL/min/kg. Further, the “Oral bioavailability (F)” value (ref Merck, 2007) is given as 32%. The “UGT substrate status / dependence on UGTs for clearance” value (shortened to “UGT substrate status / dependence”) with UGTs is “substrates and depend on UGTs for clearance”. Moreover, in data set [1] (ref Merck, 2007), the NOAEL is recorded as 120 mg/kg/day.
For the compound `COc1cc2c(cc1Cc1cccc(Cl)c1F)c(=O)c(C(=O)O)cn2[C@H](CO)C(C)C` [elvitegravir], the EC50 with Wild-Type HIV-1 NL4-3 (setting [2]) was 0.82 nM. Also, the “UGT substrate status / dependence” value in the data set on UGTs was “substrates and depend on UGTs for clearance”.
For the compound `C[C@@H]1CCO[C@H]2Cn3cc(C(=O)NCc4ccc(F)cc4F)c(=O)c(O)c3C(=O)N12` [dolutegravir], the EC50 with Wild-Type HIV-1 NL4-3 (ref Kobayashi et al., 2011) is 0.71 nM. Further, the “UGT substrate status / dependence” value with UGTs was “substrates and depend on UGTs for clearance”. The NOAEL in data set [1] (adult rats, ref Rhodes et al., 2012) is recorded as 50 mg/kg/day.
